# Assay results as given in article PMC3086427 (Clinical cancer research : an official journal of the …, 2008).
# Where two headings read alike, the source gives them in different places.
# Experiments:
# [1] = in vivo
# colorectal cancer = conditions: 5-FU chemotherapy regimens, advanced-stage CRC; cited from earlier work
# [2] = cited from earlier work
# clinical = conditions: human, in vivo, po; for half-life: T1/2
# [3] = Plasma pharmacokinetics of EKB-569 and its N-desmethyl metabolite at the MTD
# [4] = p.o., continuous schedule, cited from earlier work
# phosphorylated EGFR = conditions: 25 mg EKB-569 with full-dose Irinotecan and infusional 5-FU; cited from earlier work
structure (smiles),measurement,setting,value
"O=c1[nH]cc(F)c(=O)[nH]1 [5-FU, 5-fluorouracil]",increase in AUC[0-t] in combination with EKB-569 versus capecitabine alone,[1]; human,88%
same,increase in AUC[0-∞] in combination with EKB-569 versus capecitabine alone,[1]; human,81%
same,T1/2,"[1]; human, po",0.73 ± 0.17 h
same,Tmax,"[1]; human, po",2.00 (0.50–4.00) h
same,objective response rate,colorectal cancer,~ 20%
same,increase in 5-FU exposure with continual administration of capecitabine,"[2]; alone or with other anticancer agents, from no increase upward",≤ 83%
same,interpatient variability of 5-FU AUC,"[2]; continued daily dosing of capecitabine, day 14",85%
same,AUC of 5-FU on day 14 higher than after a single dose,[2]; continued daily dosing of capecitabine,34%
"C[C@H]1O[C@@H](n2cc(F)c(=O)[nH]c2=O)[C@H](O)[C@@H]1O [5′-DFUR, 5′-deoxy-5-fluorouridine]",increase in AUC[0-t] in combination with EKB-569 versus capecitabine alone,[1]; human,28%
same,increase in AUC[0-∞] in combination with EKB-569 versus capecitabine alone,[1]; human,31%
same,half-life,clinical,0.72 ± 0.14 h
same,Tmax,clinical,2 h
CCOc1cc2ncc(C#N)c(Nc3ccc(F)c(Cl)c3)c2cc1NC(=O)/C=C/CN(C)C [EKB-569],patients who required a dose reduction of the agent at the MTD,"EKB-569 50 mg daily and capecitabine 1,000 mg/m^2 twice daily",four
same,MTD of EKB-569 combined with capecitabine,"daily, p.o., 21-day cycle, with capecitabine 1,000 mg/m^2 twice daily",50 mg
same,Cl/F (oral clearance),"[3]; day 8, 50 mg EKB-569 p.o. daily with 1,000 mg/m^2 capecitabine, mean ± SD",57 ± 24 L/h
same,coefficient of variation values for Cmax and AUC (intersubject variability),"[3]; day 8, MTD",< 40%
same,half-life,"[3]; human, plasma, po",16.6 ± 3.7 h
same,"well-tolerated dose, single agent",[4]; patients with advanced solid tumors,up to 75 mg per day
same,"principal toxicities, single agent",[4],diarrhea and skin rash
same,inhibition of phosphorylated EGFR and downstream signaling pathways in skin and tumor samples,phosphorylated EGFR,complete inhibition
CCOc1cc2ncc(C#N)c(Nc3ccc(F)c(Cl)c3)c2cc1NC(=O)/C=C/CNC [N-desmethyl EKB-569],AUC,"[3]; human, in vivo, po",64.4 ± 43.3 ng·h/mL
same,Cmax,"[3]; human, in vivo, po",4.2 ± 3.2 ng/mL
same,T1/2,"[3]; human, in vivo, po",24.1 ± 9.2 h
same,Tmax,"[3]; human, in vivo, po",3.5 (2–6) h
"CCCCCOC(=O)Nc1nc(=O)n([C@@H]2O[C@H](C)[C@@H](O)[C@H]2O)cc1F [capecitabine, reference compound]",dose reductions of the agent secondary to diarrhea,"human, in vivo",60%
same,MTD of capecitabine combined with EKB-569,"twice daily for 14 days of a 21-day cycle, with EKB-569 50 mg daily","1,000 mg/m^2"
same,mean terminal half-life,[1]; human,half an hour
same,time at which Cmax was observed after p.o. administration,"[1]; human, po",1 h
same,"difference of pharmacokinetic variables, monotherapy vs combination therapy",[1],no statistically significant difference
same,half-life,clinical,0.52 ± 0.17 h
same,Tmax,clinical,1 h
